Laboratory results: ChEMBL document CHEMBL1212695, “An allosteric potentiator of M4 mAChR modulates hippocampal synaptic transmission” (Nat Chem Biol, 2008)
Calls of active or inactive are those of the source. No cut-off for these calls is given here.

Tests used:
[1] = biological target: T1, Muscarinic acetylcholine receptor M1 (Rattus norvegicus) (UniProt P08482); assay: Allosteric activation of rat recombinant muscarinic M1 receptor expressed in CHO cells assessed as potentiation of acetylcholine-induced calcium mobilization at 10 uM after 1 hr by fluorescence assay; assay type: functional, cell-based
T1 sequence (whole entry): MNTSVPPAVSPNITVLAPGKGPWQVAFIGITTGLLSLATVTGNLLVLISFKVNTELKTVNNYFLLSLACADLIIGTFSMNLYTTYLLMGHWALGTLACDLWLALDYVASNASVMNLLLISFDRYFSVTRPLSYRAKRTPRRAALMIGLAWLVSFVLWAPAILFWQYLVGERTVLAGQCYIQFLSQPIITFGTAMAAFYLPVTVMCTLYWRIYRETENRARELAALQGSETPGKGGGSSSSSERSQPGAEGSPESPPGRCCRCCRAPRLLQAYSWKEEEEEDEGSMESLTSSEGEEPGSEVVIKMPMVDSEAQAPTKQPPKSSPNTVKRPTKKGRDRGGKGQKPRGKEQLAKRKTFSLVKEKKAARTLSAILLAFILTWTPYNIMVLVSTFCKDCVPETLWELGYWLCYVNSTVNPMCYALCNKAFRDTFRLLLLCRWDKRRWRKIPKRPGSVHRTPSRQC

[2] = biological target: T2, Muscarinic acetylcholine receptor M4 (Rattus norvegicus) (UniProt P08485); assay: Agonist activity at muscarinic M4 receptor in Sprague-Dawley rat hippocampal CA1 pyramidal neuron assessed as inhibitory postsynaptic current amplitude at 5 uM by whole-cell electrophysiology relative to control; assay type: functional, tissue-based; parameters: scale not given: the % may be the effect or the level left; conditions: Hippocampus
T2 sequence (whole entry): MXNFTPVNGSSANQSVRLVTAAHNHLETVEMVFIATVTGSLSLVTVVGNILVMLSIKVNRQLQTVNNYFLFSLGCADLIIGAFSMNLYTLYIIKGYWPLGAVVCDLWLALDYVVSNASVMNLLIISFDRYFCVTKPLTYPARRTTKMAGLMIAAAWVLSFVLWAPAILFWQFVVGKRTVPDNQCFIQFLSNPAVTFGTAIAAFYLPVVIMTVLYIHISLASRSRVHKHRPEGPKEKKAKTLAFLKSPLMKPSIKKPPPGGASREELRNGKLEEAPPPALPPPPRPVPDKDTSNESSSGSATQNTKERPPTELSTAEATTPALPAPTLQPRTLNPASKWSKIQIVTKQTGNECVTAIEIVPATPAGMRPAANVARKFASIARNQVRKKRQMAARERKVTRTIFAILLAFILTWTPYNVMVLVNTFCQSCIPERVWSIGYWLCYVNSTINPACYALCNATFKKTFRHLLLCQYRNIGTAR

[3] = biological target: T3, Muscarinic acetylcholine receptor M5 (Rattus norvegicus) (UniProt P08911); assay: Antagonist activity at rat recombinant muscarinic M5 receptor expressed in CHO cells assessed as calcium mobilization at 10 uM after 1 hr by fluorescence assay; assay type: functional, cell-based
T3 sequence (whole entry): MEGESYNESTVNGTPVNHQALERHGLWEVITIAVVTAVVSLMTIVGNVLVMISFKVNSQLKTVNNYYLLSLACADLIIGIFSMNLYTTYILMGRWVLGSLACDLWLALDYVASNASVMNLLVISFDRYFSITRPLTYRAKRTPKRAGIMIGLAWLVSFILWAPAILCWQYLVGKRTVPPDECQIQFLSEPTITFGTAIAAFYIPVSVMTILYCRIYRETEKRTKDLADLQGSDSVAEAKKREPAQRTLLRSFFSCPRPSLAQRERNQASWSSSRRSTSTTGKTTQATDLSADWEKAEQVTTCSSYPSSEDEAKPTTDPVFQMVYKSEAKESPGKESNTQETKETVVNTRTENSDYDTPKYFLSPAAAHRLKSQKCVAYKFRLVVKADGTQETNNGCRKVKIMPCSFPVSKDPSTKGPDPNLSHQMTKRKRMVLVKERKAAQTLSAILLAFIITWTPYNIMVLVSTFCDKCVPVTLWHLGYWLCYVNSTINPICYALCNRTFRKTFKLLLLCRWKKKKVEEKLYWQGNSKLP

[4] = biological target: T2, Muscarinic acetylcholine receptor M4 (Rattus norvegicus); assay: Allosteric activation of rat recombinant muscarinic M4 receptor expressed in CHO cells assessed as potentiation of acetylcholine-induced increase in [35S]GTPgammaS binding at 10 um after 1 hr by equilibrium binding assay; assay type: functional, cell-based
CHO = assay: Agonist activity at P2Y1 receptor in CHO cells assessed as induction of calcium mobilization at 10 uM after 1 hr by fluorescence assay; assay type: functional, cell-based; conditions: Cricetulus griseus

Cc1cc(C)c2c(N)c(C(=O)NCc3ccc(Cl)cc3)sc2n1 was tested, and the Activity [1] was “inactive”, the Activity [2] was 98.5% and the Activity [3] was “inactive”. For the same compound, the Activity [4] was 43% and the Activity (CHO) was “inactive”.
